How the values were obtained:
Format in all cases: cell-based
[1] = system: NCI-H2009; experiment: Cell viability (CellTiter-Glo), NCI-H2009; conditions: Homo sapiens; NCI-H2009, lung, adenocarcinoma, p53-mutant
Protocol: (§1) CHP-134 was purchased from Sigma Aldrich, MOLM-13 was purchased from AddexBio, and NB-1 was purchased from Sekisui XenoTech. All other cell lines were purchased from American Type Culture Collection. For all cell lines, identity was confirmed by short tandem repeat profiling and culturing was performed in recommended growth medium. For studies evaluating cellular effects of compound treatment, 250 to 2,000 cells in 40 μl of recommended medium were seeded per well in 384-well plates (Corning 3764). DMSO-solubilized compounds were added in duplicate in a two-fold dilution series using a D300e Digital Dispenser (Hewlett-Packard). Following a 5-day incubation, cell viability was measured using CellTiter-Glo (Promega) following the manufacturer's instructions. Luminescence was measured using a CLARIOstar plate reader (BMG LABTECH) and normalized to that of DMSO-treated cells. IC50 values were determined by non-linear regression using a 4-parameter fit in Prism (GraphPad Software). Inhibitor profiling of the 430-cell line panel was conducted and analyzed similarly.
(§2) In addition to the many p53 wild-type cell lines in the cell line panel that were sensitive to USP7 inhibition, a subset of p53 mutant cell lines that were inhibited by our USP7 inhibitors were identified and are shown in Table 5.

[2] = system: HCC1937; experiment: Cell viability (CellTiter-Glo), HCC1937; conditions: Homo sapiens; HCC1937, breast, triple-negative, BRCA1 mutant, p53-mutant
Protocol: as §1, §2

[3] = system: NCI-H929; experiment: Cell viability (CellTiter-Glo), NCI-H929; conditions: Homo sapiens; NCI-H929, MM, p53 wild-type
Protocol: as §1
(§3) USP7 inhibition by the compounds of Examples 31 and 124 reduced the viability of several p53-wild type blood cancer cell lines, including M07e, OCI-AML5 and MOLM13, in vitro as shown in the following Table 3. Idasanutlin was used as a positive control, and as expected these cell lines were also sensitive to this compound.

[4] = system: SK-N-DZ; experiment: Cell viability (CellTiter-Glo), SK-N-DZ; conditions: Homo sapiens, neuroblastoma, MYCN-amplified, p53-mutant
Protocol: as §1, §2

[5] = system: JJN-3; experiment: Cell viability (CellTiter-Glo), JJN-3; conditions: Homo sapiens; JJN-3, multiple myeloma, p53-mutant
Protocol: as §1, §2

[6] = system: H526; experiment: Cell viability (CellTiter-Glo), H526
Protocol: as §1, §2
The effect of pharmacological inhibition of USP7 on the viability of the p53 mutant small cell lung cancer cell line, H526 was further evaluated. […] In contrast, idasanutlin, whose inhibitory effect is dependent on a functional p53 pathway, had no effect.

[7] = system: M07e; experiment: Cell viability (CellTiter-Glo), M07e; conditions: M-07e, AML, p53 wild-type
Protocol: as §1, §3

[8] = system: OCI-AML5; experiment: Cell viability (CellTiter-Glo), OCI-AML5; conditions: Homo sapiens, OCI-AML-5, p53 wild-type
Protocol: as §1, §3

[9] = system: IMR-32; experiment: Cell viability (CellTiter-Glo), IMR-32; conditions: Homo sapiens; IMR-32, neuroblastoma, MYCN amplified, p53 wild-type
Protocol: as §1
(§4) USP7 has been reported to stabilize MYCN (also referred to as MYCN proto-oncogene, a gene that is a member of the MYC family which is over-expressed in a variety of tumors). […]

[10] = system: HUH-7; experiment: Cell viability (CellTiter-Glo), HUH-7; conditions: Homo sapiens; HUH-7, hepatocellular carcinoma, p53-mutant
Protocol: as §1, §2

[11] = system: NB-1; experiment: Cell viability (CellTiter-Glo), NB-1; conditions: Homo sapiens, NB1; NB-1, neuroblastoma, MYCN amplified, p53 wild-type
Protocol: as §1
(§5) USP7 has been reported to stabilize MYCN (also referred to as MYCN proto-oncogene, a gene that is a member of the MYC family which is over-expressed in a variety of tumors). Since MYCN amplification is an established driver mutation in neuroblastoma, the effect of USP7 inhibition on a panel of p53 wild-type, MYCN- or MYC-amplified neuroblastoma cell lines was tested. The USP7 inhibitors of Examples 31 and 124 reduced viability of all three MYCN-amplified and two MYC-amplified neuroblastoma cell lines tested as shown in Table 4. Idasanutlin was used as a positive control, and as expected these cell lines were also sensitive to this compound.

[12] = system: EBC-1; experiment: Cell viability (CellTiter-Glo), EBC-1; conditions: Homo sapiens; EBC-1, lung, squamous cell carcinoma, p53-mutant
Protocol: as §1, §2

[13] = system: MOLP8; experiment: Cell viability (CellTiter-Glo), MOLP8; conditions: Homo sapiens, MOLP-8; MOLP8, MM, p53 wild-type
Protocol: as §1, §3

[14] = system: SH-SY5Y; experiment: Cell viability (CellTiter-Glo), SH-SY5Y; conditions: Homo sapiens, neuroblastoma, MYC amplified, p53 wild-type
Protocol: as §1, §5

[15] = system: HCC1806; experiment: Cell viability (CellTiter-Glo), HCC1806; conditions: Homo sapiens; HCC1806, breast, triple-negative, p53-mutant
Protocol: as §1, §2

[16] = system: CHP-134; experiment: Cell viability (CellTiter-Glo), CHP-134; conditions: Homo sapiens; CHP-134, neuroblastoma, MYCN amplified, p53 wild-type
Protocol: as §1, §5

[17] = system: LA-N-2; experiment: Cell viability (CellTiter-Glo), LA-N-2; conditions: LA-N-2, neuroblastoma, MYCN-amplified, p53-mutant
Protocol: as §1, §2

[18] = system: NCI-N87; experiment: Cell viability (CellTiter-Glo), NCI-N87; conditions: Homo sapiens; NCI-N87, gastric, p53-mutant
Protocol: as §1, §2

[19] = system: MOLM13; experiment: Cell viability (CellTiter-Glo), MOLM13; conditions: Homo sapiens, MOLM-13; MOLM13, AML, p53 wild-type
Protocol: as §1, §3

[20] = system: EOL-1; experiment: Cell viability (CellTiter-Glo), EOL-1; conditions: Homo sapiens, EOL1; EOL-1, AML, p53 wild-type
Protocol: as §1, §3

[21] = system: MHCC97-H; experiment: Cell viability (CellTiter-Glo), MHCC97-H; conditions: Homo sapiens, MHCC97H, hepatocellular carcinoma, p53-mutant
Protocol: as §1, §2

[22] = system: NCI-H820; experiment: Cell viability (CellTiter-Glo), NCI-H820; conditions: NCI-H820, lung, papillary adenocarcinoma, p53-mutant
Protocol: as §1, §2

[23] = system: SK-N-SH; experiment: Cell viability (CellTiter-Glo), SK-N-SH; conditions: Homo sapiens, neuroblastoma, MYC amplified, p53 wild-type
Protocol: as §1, §4

[24] = system: MM.1S; experiment: Cell viability (CellTiter-Glo), MM.1S; conditions: Homo sapiens, MM1.S, p53 wild-type
Protocol: as §1, §3

SMILES: COc1cc(C(=O)O)ccc1NC(=O)[C@@H]1N[C@@H](CC(C)(C)C)[C@](C#N)(c2ccc(Cl)cc2F)[C@H]1c1cccc(Cl)c1F [Idasanutlin, reference compound]
- CC50 [1]: > 25000 nM
- CC50 [2]: 7100 nM
- CC50 [3]: 200 nM
- CC50 [4]: > 12500 nM
- CC50 [5]: > 25000 nM
- effect on viability of H526 ([6]; H526, p53 mutant small cell lung cancer, in vitro): had no effect
- CC50 ([6]; Homo sapiens, NCI-H526, H526, lung, small cell, p53-mutant, read-out: CC50): 6500 nM
- CC50 [7]: 30 nM
- CC50 [8]: 40 nM
- CC50 [9]: 240 nM
- CC50 [10]: > 25000 nM
- CC50 [11]: 100 nM
- CC50 [12]: 16200 nM
- CC50 [13]: 300 nM
- CC50 [14]: 100 to 500 nM
- CC50 [15]: 7500 nM
- CC50 [16]: 10 nM
- CC50 [17]: 5300 nM
- CC50 [18]: 8600 nM
- CC50 [19]: 20 nM
- CC50 [20]: 50 nM
- CC50 [21]: > 25000 nM
- CC50 [22]: 9700 nM
- CC50 [23]: 200 nM
- CC50 [24]: 20 nM

Source: patent publication US11084829B2, “Ubiquitin-specific-processing protease 7 (USP7) modulators and uses thereof” (RAPT THERAPEUTICS, INC., priority 2018, dated 2021)
